By IC50 is commonly meant the midpoint of a concentration-inhibition curve.

29 compounds from US20190071416A1, “COMPOUNDS FOR TREATMENT OF CANCER AND EPIGENETICS” (Agency For Science, Technology and Research, priority 2015, published 2019) can be followed below.

The assay concerns the target T1, SMYD3 (Homo sapiens, UniProt Q9H7B4).
T1 sequence (Q9H7B4 1-428): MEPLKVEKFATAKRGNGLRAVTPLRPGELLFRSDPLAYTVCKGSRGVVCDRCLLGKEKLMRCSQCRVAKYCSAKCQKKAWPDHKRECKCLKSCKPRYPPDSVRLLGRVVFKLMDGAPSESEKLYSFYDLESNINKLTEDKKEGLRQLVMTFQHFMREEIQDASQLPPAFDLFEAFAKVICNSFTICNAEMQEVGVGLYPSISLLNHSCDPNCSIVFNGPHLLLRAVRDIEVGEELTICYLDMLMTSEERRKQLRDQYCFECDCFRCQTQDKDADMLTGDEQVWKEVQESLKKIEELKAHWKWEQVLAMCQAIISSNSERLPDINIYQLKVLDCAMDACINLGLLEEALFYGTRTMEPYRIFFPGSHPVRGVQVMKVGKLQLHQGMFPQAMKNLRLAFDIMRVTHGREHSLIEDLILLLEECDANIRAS
Put plainly: SMYD3 biochemical assay (MTase-Glo, MAP3K2 peptide substrate). The following applies: Table 3; MTase assay, MAP3K2 peptide substrate; read-out: IC50. On the procedure: A SMYD3 enzymatic assay was developed using Promega's Methyltransferase-Glo™ reagents. In the assay, SMYD3 catalyzes the methylation of the MAP3K2 peptide substrate by transferring a methyl group from SAM to MAP3K2 peptide and further converts the SAM to SAH. The SMYD3 methyltransferase activity is measured based on the amount of SAH produced from the reaction through the use of coupling enzymes that convert the SAH to ATP. The MTase-Glo detection solution then catalyzes the formation of light from ATP.
A final concentration of 1.0 μM and 10 μM SAM and MAP3K2 peptide were added and further incubated for 30 min at room temperature before adding the MTase Glo and detection reagent. Reaction signals were detected using microplate readers on luminescent mode (Safire Tecan). The IC50 was determined by non-linear regression, using GraphPad Prism version, 5.03.
`CCCOC(=O)N1CCN(C(=O)c2ccc3c(Cl)c4c(nc3c2)CCC(CC(=O)OC)C4)C[C@@H]1C` (stereo partly drawn) [A062, Propyl (2S)-4-(9-chloro-7-(2-methoxy-2-oxoethyl)-5,6,7,8-tetrahydroacridine-3-carbonyl)-2-methylpiperazine-1-carboxylate]: the IC50 amounted to 210 nM.

For `CCCOC(=O)N1CCN(C(=O)c2ccc3c(Cl)c4c(nc3c2)CCC(CC(=O)OC)C4)C[C@H]1C` (stereo partly drawn) [A063, Propyl (2R)-4-(9-chloro-7-(2-methoxy-2-oxoethyl)-5,6,7,8-tetrahydroacridine-3-carbonyl)-2-methylpiperazine-1-carboxylate], the IC50 came out at 250 nM. In the case of `CCCOC(=O)N1CCN(C(=O)c2ccc3c(Cl)c4c(nc3c2)CCCC4)C(C(F)(F)F)C1` (centres unmarked) [A064, Propyl 4-(9-chloro-5,6,7,8-tetrahydroacridine-3-carbonyl)-3-(trifluoromethyl)piperazine-1-carboxylate], the half-inhibitory concentration (IC50) amounted to 700 nM.

As for `CCCOC(=O)N1CCN(C(=O)c2ccc3c(Cl)c4c(nc3c2)CC(CC#N)CC4)CC1` (centres unmarked) [A065, Propyl 4-(9-chloro-6-(cyanomethyl)-5,6,7,8-tetrahydroacridine-3-carbonyl)piperazine-1-carboxylate], the IC50 worked out at 190 nM. Turning to `CCCOC(=O)N1CCN(C(=O)c2ccc3c(Cl)c4c(nc3c2)CC(CN)CC4)[C@@H](C)C1` (stereo partly drawn) [A067, Propyl (3S)-4-(6-(aminomethyl)-9-chloro-5,6,7,8-tetrahydroacridine-3-carbonyl)-3-methylpiperazine-1-carboxylate], the half-inhibitory concentration (IC50) is 160 nM. As for `CCCOC(=O)N1CCN(C(=O)c2ccc3c(Cl)c4c(nc3c2)CCC(CN(C)C)C4)CC1` (centres unmarked) [A068, Propyl 4-(9-chloro-7-((dimethylamino)methyl)-5,6,7,8-tetrahydroacridine-3-carbonyl)piperazine-1-carboxylate], the concentration for half-maximal inhibition (IC50) amounted to 1200 nM.

For `CCCOC(=O)N1CCN(C(=O)c2ccc3c(Cl)c4c(nc3c2)CCCC4)CC1CC(=O)OC` (centres unmarked) [A069, Propyl 4-(9-chloro-5,6,7,8-tetrahydroacridine-3-carbonyl)-2-(2-methoxy-2-oxoethyl)piperazine-1-carboxylate], the IC50 is 5200 nM. As for `CCCOC(=O)N1CCN(C(=O)c2ccc3c(Cl)c4c(nc3c2)CCCC4)C(CC(=O)OC)C1` (centres unmarked) [A070, Propyl 4-(9-chloro-5,6,7,8-tetrahydroacridine-3-carbonyl)-3-(2-methoxy-2-oxoethyl)piperazine-1-carboxylate], the figure is 2600 nM; as for `CCCOC(=O)N1CCN(C(=O)c2ccc3c(Cl)c4c(nc3c2)CCCC4)C(CC(=O)N(C)C)C1` (centres unmarked) [A071, Propyl 4-(9-chloro-5,6,7,8-tetrahydroacridine-3-carbonyl)-3-(2-(dimethylamino)-2-oxoethyl)piperazine-1-carboxylate], 4200 nM.

Take `CCCOC(=O)N1CCN(C(=O)c2ccc3c(Cl)c4c(nc3c2)CCCC4)C(CC(=O)NC)C1` (centres unmarked) [A072, propyl 4-(9-chloro-5,6,7,8-tetrahydroacridine-3-carbonyl)-3-(2-(methylamino)-2-oxoethyl)piperazine-1-carboxylate]: the IC50 came to 4300 nM. Turning to `CCCOC(=O)N1CCN(C(=O)c2ccc3c(Cl)c4c(nc3c2)CC(c2ccccn2)CC4)C[C@@H]1C` (stereo partly drawn) [A073, Propyl (2S)-4-(9-chloro-6-(pyridin-2-yl)-5,6,7,8-tetrahydroacridine-3-carbonyl)-2-methylpiperazine-1-carboxylate], the IC50 amounted to 150 nM.

In the case of `CCCOC(=O)N1CCN(C(=O)c2ccc3c(Cl)c4c(nc3c2)CCC(CCN(C)C)C4)CC1` (centres unmarked) [A075, Propyl 4-(9-chloro-7-(2-(dimethylamino)ethyl)-5,6,7,8-tetrahydroacridine-3-carbonyl)piperazine-1-carboxylate], the IC50 worked out at 210 nM. As to `CCCOC(=O)N1CCN(C(=O)c2ccc3c(Cl)c4c(nc3c2)CC(CCN)CC4)CC1` (centres unmarked) [A076, Propyl 4-(6-(2-aminoethyl)-9-chloro-5,6,7,8-tetrahydroacridine-3-carbonyl)piperazine-1-carboxylate], the concentration for half-maximal inhibition (IC50) was found to be 160 nM. As for `CCCOC(=O)N1CCN(C(=O)c2ccc3c(Cl)c4c(nc3c2)CC(CC(N)=O)CC4)CC1` (centres unmarked) [A077, Propyl 4-(6-(2-amino-2-oxoethyl)-9-chloro-5,6,7,8-tetrahydroacridine-3-carbonyl)piperazine-1-carboxylate], the half-maximal inhibitory concentration (IC50) came to 1200 nM. With `CCCOC(=O)N1CCN(C(=O)c2ccc3c(Cl)c4c(nc3c2)CCC(CC#N)C4)CC1` (centres unmarked) [A078, Propyl 4-(9-chloro-7-(cyanomethyl)-5,6,7,8-tetrahydroacridine-3-carbonyl)piperazine-1-carboxylate], the IC50 stood at 280 nM. Then `CCCOC(=O)N1CCN(C(=O)c2ccc3c(Cl)c4c(nc3c2)CCC(CC(N)=O)C4)CC1` (centres unmarked) [A079, Propyl 4-(7-(2-amino-2-oxoethyl)-9-chloro-5,6,7,8-tetrahydroacridine-3-carbonyl)piperazine-1-carboxylate], with 430 nM. `CCCOC(=O)N1CC2CCCC1CN2C(=O)c1ccc2c(Cl)c3c(nc2c1)CCCC3` (centres unmarked) [A080, Propyl 8-(9-chloro-5,6,7,8-tetrahydroacridine-3-carbonyl)-6,8-diazabicyclo[3.2.2]nonane-6-carboxylate]: the 50% inhibitory concentration (IC50) was 170 nM. Consider `CCCOC(=O)N1CCN(C(=O)c2ccc3c(Cl)c4c(nc3c2)CCC(CCN)C4)[C@@H](C)C1` (stereo partly drawn) [A081, Propyl (3S)-4-(7-(2-aminoethyl)-9-chloro-5,6,7,8-tetrahydroacridine-3-carbonyl)-3-methylpiperazine-1-carboxylate], for which the half-inhibitory concentration (IC50) was determined as 150 nM. As to `CCCOC(=O)N1CCN(C(=O)c2ccc3c(Cl)c4c(nc3c2)CCC(CCN(C)C)C4)[C@@H](C)C1` (stereo partly drawn) [A082, Propyl (3S)-4-(9-chloro-7-(2-(dimethylamino)ethyl)-5,6,7,8-tetrahydroacridine-3-carbonyl)-3-methylpiperazine-1-carboxylate], the half-maximal inhibitory concentration (IC50) is 510 nM. As for `Cc1cc(C(=O)N2CCN(C(=O)c3ccc4c(Cl)c5c(nc4c3)CCCC5)[C@@H](C)C2)no1` [A083, (S)-(9-Chloro-5,6,7,8-tetrahydroacridin-3-yl)(2-methyl-4-(5-methylisoxazole-3-carbonyl)piperazin-1-yl)methanone], the figure is 440 nM; as for `CCCOC(=O)N1CCN(C(=O)c2ccc3c(Cl)c4c(nc3c2)CCC(CC(=O)OC)C4)[C@@H](C)C1` (stereo partly drawn) [A084, Propyl (3S)-4-(9-chloro-7-(2-methoxy-2-oxoethyl)-5,6,7,8-tetrahydroacridine-3-carbonyl)-3-methylpiperazine-1-carboxylate], 120 nM; as for `CCCOC(=O)N1CCN(C(=O)c2ccc3c(Cl)c4c(nc3c2)CCC(CC(=O)OC)C4)[C@H](C)C1` (stereo partly drawn) [A085, Propyl (3R)-4-(9-chloro-7-(2-methoxy-2-oxoethyl)-5,6,7,8-tetrahydroacridine-3-carbonyl)-3-methylpiperazine-1-carboxylate], 160 nM. For the compound `CCCOC(=O)N1CCN(C(=O)c2ccc3c(Cl)c4c(nc3c2)CC(c2ccccn2)CC4)[C@@H](C)C1` (stereo partly drawn) [A086, Propyl (3S)-4-(9-chloro-6-(pyridin-2-yl)-5,6,7,8-tetrahydroacridine-3-carbonyl)-3-methylpiperazine-1-carboxylate], the half-inhibitory concentration (IC50) is 95 nM. `CCCOC(=O)N1CCN(C(=O)c2ccc3c(Cl)c4c(nc3c2)CC(c2ccccn2)CC4)[C@H](C)C1` (stereo partly drawn) [A087, Propyl (3R)-4-(9-chloro-6-(pyridin-2-yl)-5,6,7,8-tetrahydroacridine-3-carbonyl)-3-methylpiperazine-1-carboxylate]: the concentration for half-maximal inhibition (IC50) is 56 nM. Take `CCCOC(=O)N1CCN(C(=O)c2ccc3c(Cl)c4c(nc3c2)CCC(Cc2noc(C)n2)C4)CC1` (centres unmarked) [A089, Propyl 4-(9-chloro-7-((5-methyl-1,2,4-oxadiazol-3-yl)methyl)-5,6,7,8-tetrahydroacridine-3-carbonyl)piperazine-1-carboxylate]: the IC50 turned out to be 350 nM. For the compound `CCCOC(=O)N1CCN(C(=O)c2ccc3c(Cl)c4c(nc3c2)CC(CNC(=N)N)CC4)[C@@H](C)C1` (stereo partly drawn) [A090, Propyl (3S)-4-(9-chloro-6-(guanidinomethyl)-5,6,7,8-tetrahydroacridine-3-carbonyl)-3-methylpiperazine-1-carboxylate], the IC50 was 350 nM. As to `CCCOC(=O)N1CCN(C(=O)c2ccc3c(Cl)c4c(nc3c2)CC(CCNC(=N)N)CC4)[C@@H](C)C1` (stereo partly drawn) [A091, Propyl (3S)-4-(9-chloro-6-(2-guanidinoethyl)-5,6,7,8-tetrahydroacridine-3-carbonyl)-3-methylpiperazine-1-carboxylate], the concentration for half-maximal inhibition (IC50) is 140 nM.

For `CCCOC(=O)N1CCN(C(=O)c2ccc3c(Cl)c4c(nc3c2)CC(c2ccncc2)CC4)[C@@H](C)C1` (stereo partly drawn) [A092, Propyl (3S)-4-(9-chloro-6-(pyridin-4-yl)-5,6,7,8-tetrahydroacridine-3-carbonyl)-3-methylpiperazine-1-carboxylate], the IC50 stood at 110 nM. Turning to `CCCOC(=O)N1CCN(C(=O)c2ccc3c(Cl)c4c(nc3c2)CC(c2ccncc2)CC4)[C@H](C)C1` (stereo partly drawn) [A093, Propyl (3R)-4-(9-chloro-6-(pyridin-4-yl)-5,6,7,8-tetrahydroacridine-3-carbonyl)-3-methylpiperazine-1-carboxylate], the half-inhibitory concentration (IC50) amounted to 100 nM.
